Laboratory results as given in patent US20030013660A1, “Dioxolane analogs for improved inter-cellular delivery” (Shire BioChem Inc., priority 2000, published 2003).
Like-named read-outs stand apart in the source and are kept apart here.

Columns and labels:
Assay in all cases: 3H-TdR (3H-thymidine) incorporation assay at 72 hr
SF-268 = assay type: cell-based, Human; settings: Homo sapiens
MCF-7 = assay type: cell-based, Human; settings: Homo sapiens
CCRF-CEM = assay type: cell-based; settings: Homo sapiens, CCRF-CEM
Protocol: (§1) Table of IC50 Values (μM) for Controls
(§2) Exposition of 24 hr to drug, wash, incubated for another 48 hr (total of 72 hr assay)
(§3) (3H-Thymidine Incorporation Assay)

CEM/dCK- = assay type: cell-based; settings: for IC50: Homo sapiens, CCRF-CEM; for Factor* (Resistance Factor = Ratio of dCK- on Wild-type CCRF-CEM): ratio of IC50 CEM/dCK- to CCRF-CEM, 24 h
Protocol: as §1, §2, §3

H-460 = assay type: cell-based, Human; settings: Homo sapiens
[1] = SF-268, read-out: IC50 SF-268 24 h
[2] = MCF7, read-out: IC50 MCF-7 24 h
[3] = NCI-H460, read-out: IC50 H-460 24 h
[4] = SF-268, read-out: IC50 SF-268 24 h, 24 h drug exposure, wash, another 48 hr, 3H-TdR incorporation at 72 hr
[5] = MCF7, read-out: IC50 MCF-7 24 h, 24 h drug exposure, wash, another 48 hr, 3H-TdR incorporation at 72 hr
[6] = read-out: IC50 CCRF-CEM 24 h, 24 h drug exposure, wash, another 48 hr, 3H-TdR incorporation at 72 hr
[7] = read-out: IC50 CEM/dCK- 24 h, 24 h drug exposure, wash, another 48 hr, deoxycytidine kinase-deficient CCRF-CEM
[8] = NCI-H460, read-out: IC50 H-460 24 h, 24 h drug exposure, wash, another 48 hr, 3H-TdR incorporation at 72 hr

Row | Compound | IC50 (SF-268; [4]) | IC50 (MCF-7; [5]) | IC50 (CCRF-CEM; [6]) | IC50 (CEM/dCK-; [7]) | IC50 (H-460; [8]) | IC50 (SF-268; [1]) | IC50 (MCF-7; [2]) | IC50 (CCRF-CEM; read-out: IC50 CCRF-CEM 24 h) | IC50 (CEM/dCK-; read-out: IC50 CEM/dCK- 24 h) | Factor* (Resistance Factor = Ratio of dCK- on Wild-type CCRF-CEM) (CEM/dCK-) | IC50 (H-460; [3])
1 | O=C(Nc1ccn([C@@H]2CO[C@H](CO)O2)c(=O)n1)Oc1ccccc1 [Compound 44, [1-(2-HYDROXYMETHYL- [1,3]DIOXOLAN-4-YL)-2- OXO-1,2-DIHYDRO- […]-4-YL]- CARBAMIC ACID PHENYL ESTER] |  |  |  |  |  | 890 nM | 970 nM | 77 nM | > 100 µM | 1,300 | 370 nM
2 | N=C(OC[C@H]1OC[C@@H](n2ccc(N)nc2=O)O1)C(Cl)(Cl)Cl [Compound 79] |  |  |  |  |  | 160 nM | 170 nM | 14 nM |  | 4,500 | 120 nM
3 | COC(C)(C)OC[C@H]1OC[C@@H](n2ccc(N)nc2=O)O1 [Compound 54, 4-AMINO-1-[2-(1- METHOXY-1-METHYL- ETHOXYMETHYL)- [1,3]DIOXOLAN-4-YL]-1H- PYRIMIDIN-2-ONE] | 700 nM | 500 nM | 120 nM | 65 µM | 170 nM |  |  |  |  | 542 | 
4 | O=C(Nc1ccn([C@@H]2CO[C@H](COC(=O)OCCCCCl)O2)c(=O)n1)OCCCCCl [Compound 159, CARBONIC ACID 4-[4-(4- CHLORO- BUTOXYCARBONYLAMINO)-2- OXO-2H-PYRIMIDIN-1-YL]- [1,3]DIOXOLAN-2- YLMETHYL ESTER 4- CHLORO-BUTYL ESTER] | 1600 nM | 720 nM | 380 nM | > 100 µM | 870 nM |  |  |  |  | >263 | 
5 | CC(C)(C)OC(=O)N(CCCCC(=O)Nc1ccn([C@@H]2CO[C@H](CO)O2)c(=O)n1)Cc1ccccc1 [Compound 115, BENZYL-{4-[1-(2- HYDROXYMETHYL- [1,3]DIOXOLAN-4-YL)-2- OXO-1,2-DIHYDRO- PYRIMIDIN-4- YLCARBAMOYL]-BUTYL}- CARBAMIC ACID TERT!- BUTYL ESTER] | 620 nM | 150 nM | 200 nM | > 100 µM | 380 nM |  |  |  |  | >500 | 
6 | CN(C)/C=N/c1ccn([C@@H]2CO[C@H](COC(=O)CC34CC5CC(CC(C5)C3)C4)O2)c(=O)n1 [Compound 129, (2S,4S)-2-(1″- ADMANTANEACETOXY)METHYL -4-(4′-N,N- DIMETHYLAMINOMETHYLENE- CYTOSIN-1′-YL)-1,3- DIOXOLANE] | 200 nM | 20 nM | 72 nM | 15 µM | 150 nM |  |  |  |  | 208 | 
7 | CCCCCCNC(=O)OC[C@H]1OC[C@@H](n2ccc(N)nc2=O)O1 [Compound 121, HEXYL-CARBAMIC ACID 4- (4-AMINO-2-OXO-2H- PYRIMIDIN-1-YL)- [1,3]DIOXOLAN-2- YLMETHYL ESTER] | > 100000 nM | 37000 nM | 17000 nM | > 100 µM | 28000 nM |  |  |  |  | >6 | 
8 | Nc1ccn([C@@H]2CO[C@H](COC(=O)Oc3ccc(Cl)cc3)O2)c(=O)n1.O=C(O)C(F)(F)F [Compound 105, CARBONIC ACID 4-(4- AMINO-2-OXO-2H- PYRIMIDIN-1-YL)- [1,3]DIOXOLAN-2- YLMETHYL ESTER 4- CHLORO-PHENYL ESTER TRIFLUOROACETATE SALT] | 71 nM | 68 nM | 33 nM | 79 µM | 80 nM |  |  |  |  | 2393 | 

Continued, in another order:

Row | IC50 (SF-268; [4]) | IC50 (MCF-7; [5]) | IC50 (CCRF-CEM; [6]) | IC50 (CEM/dCK-; [7]) | IC50 (H-460; [8]) | Compound | IC50 (SF-268; [1]) | IC50 (MCF-7; [2]) | IC50 (CCRF-CEM; read-out: IC50 CCRF-CEM 24 h) | IC50 (CEM/dCK-; read-out: IC50 CEM/dCK- 24 h) | Factor* (Resistance Factor = Ratio of dCK- on Wild-type CCRF-CEM) (CEM/dCK-) | IC50 (H-460; [3])
9 | 1900 nM | 5200 nM | 710 nM | 78 µM | 3000 nM | O=c1nc(NC2(c3ccccc3)c3ccccc3Oc3ccccc32)ccn1[C@@H]1CO[C@H](COC2(c3ccccc3)c3ccccc3Oc3ccccc32)O1 [Compound 144, 4-(9-PHENYL-9#H!- XANTHEN-9-YLAMINO)-1- [2-(9-PHENYL-9#H!- XANTHEN-9-YLOXYMETHYL)- [1,3]DIOXOLAN-4-YL]- 1#H!-PYRIMIDIN-2-ONE] |  |  |  |  | 110 | 
10 | 4200 nM | 1600 nM | 1300 nM | > 100 µM | 2100 nM | CC(OC[C@H]1OC[C@@H](n2ccc(N)nc2=O)O1)OC1CCCCC1 (some centres unmarked) [Compound 92, 4-AMINO-1-[2-(1- CYCLOHEXYLOXY- ETHOXYMETHYL)- [1,3]DIOXOLAN-4-YL]-1H- PYRIMIDIN-2-ONE] |  |  |  |  | 77 | 
11 | 130 nM | 16 nM | 14 nM | 38 µM | 12 nM | CC(C)(C)C(=O)OCOC[C@H]1OC[C@@H](n2ccc(N)nc2=O)O1 [Compound 58, 2,2-DIMETHYL-PROPIONIC ACID 4-(4-AMINO-2-OXO- 2H-PYRIMIDIN-1-YL)- [1,3]DIOXOLAN-2- YLMETHOXYMETHYL ESTER] |  |  |  |  | 2,714 | 
12 | 810 nM | 130 nM | 180 nM | > 100 µM | 310 nM | CCCCCOC(=O)Nc1ccn([C@@H]2CO[C@H](CO)O2)c(=O)n1 [Compound 71, [1-(2-HYDROXYMETHYL- [1,3]DIOXOLAN-4-YL)-2- OXO-1,2-DIHYDRO- PYRIMIDIN-4-YL]- CARBAMIC ACID PENTYL ESTER] |  |  |  |  | 556 | 
13 | 5500 nM | 1800 nM | 2800 nM | > 100 µM | 630 nM | CCOC(C)OC[C@H]1OC[C@@H](n2ccc(N)nc2=O)O1 (stereo in doubt) [Compound 91, 4-AMINO-1-[2-(1-ETHOXY- ETHOXYMETHYL)- [1,3]DIOXOLAN-4-YL]-1H- PYRIMIDIN-2-ONE] |  |  |  |  | 36 | 
14 | 2200 nM | 550 nM | 12 nM | > 100 µM | 24 nM | CC(C(=O)OC[C@H]1OC[C@@H](n2ccc(N)nc2=O)O1)C(c1ccccc1)c1ccccc1 (stereo partly drawn) [Compound 157, (2S,4S)-(3″-DIPHENYL- 2″- METHYLPROPIOXYMETHYL)- 4-CYTOSIN-1′-YL-1,3- DIOXOLANE] |  |  |  |  | >8333 | 
15 | 1000 nM | 1700 nM | 410 nM | 11 µM | 190 nM | O=C(Nc1ccn([C@@H]2CO[C@H](COC(=O)C34CC5CC(CC(C5)C3)C4)O2)c(=O)n1)C12CC3CC(CC(C3)C1)C2 [Compound 102, ADAMANTANE-1-CARBOXYLIC ACID 4-{4-[(ADAMANTANE- 1-CARBONYL)-AMINO]-2- OXO-2H-PYRIMIDIN-1-YL}- [1,3]DIOXOLAN-2- YLMETHYL ESTER] |  |  |  |  | 27 | 
16 | 1200 nM | 360 nM | 360 nM | > 100 µM | 920 nM | O=C(Nc1ccn([C@@H]2CO[C@H](CO)O2)c(=O)n1)OCCCCCl [Compound 160, [1-(2-HYDROXYMETHYL- [1,3]DIOXOLAN-4-YL)-2- OXO-1,2-DIHYDRO- PYRIMIDIN-4-YL]- CARBAMIC ACID 4-CHLORO- BUTYL ESTER] |  |  |  |  | >278 | 
17 | 40 nM | 66 nM | 19 nM | 69 µM | 34 nM | CCCCC(OC)(OC)OC[C@H]1OC[C@@H](n2ccc(N)nc2=O)O1 [Compound 141, 4-AMINO-1-[2-(1,1- DIMETHOXY- PENTYLOXYMETHYL)- [1,3]DIOXOLAN-4-YL]-1H- PYRIMIDIN-2-ONE] |  |  |  |  | 3,632 | 
